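Assay format: 96-well plates, 48-hour exposure. The concentration for full growth arrest is given as TGI.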
How the values were obtained:
Assay in all cases: DTP human tumour cell line panel, 48 h
786-0 renal = test system: 786-0 renal
A549 NSCLC = test system: A549 NSCLC
COLO 205 colon = test system: COLO 205 colon
EKVX NSCLC = test system: EKVX NSCLC
HCT-116 colon = test system: HCT-116 colon
HL-60(TB) leukemia = test system: HL-60(TB) leukemia
HS 578T breast = test system: HS 578T breast
IGROV1 ovarian = test system: IGROV1 ovarian
K-562 leukemia = test system: K-562 leukemia
M14 melanoma = test system: M14 melanoma
MDA-MB-231 breast = test system: MDA-MB-231 breast
NCI-H23 lung = test system: NCI-H23 lung
RXF 393 renal = test system: RXF 393 renal
UO-31 renal = test system: UO-31 renal

## COCC(=O)OC1CCn2c1nc1c2C(=O)C(C)=C(NC(C)=O)C1=N (stereo not drawn)
786-0 renal
  TGI: 9.3 µM
A549 NSCLC
  TGI: 42.5 µM
COLO 205 colon
  TGI: 37.3 µM
EKVX NSCLC
  TGI: 25.3 µM
HCT-116 colon
  TGI: 11.4 µM
HL-60(TB) leukemia
  TGI: 4.54 µM
HS 578T breast
  TGI: 18.8 µM
IGROV1 ovarian
  TGI: 24.2 µM
K-562 leukemia
  TGI: 4.59 µM
M14 melanoma
  TGI: 15 µM
MDA-MB-231 breast
  TGI: 8.82 µM
NCI-H23 lung
  TGI: 23.8 µM
RXF 393 renal
  TGI: 6.47 µM
UO-31 renal
  TGI: 24 µM

## CCCN1CN(c2ccccc2)C2(CCN(CCCC(=O)c3ccc(F)cc3)CC2)C1=O
786-0 renal
  TGI: 17.3 µM
A549 NSCLC
  TGI: 29.8 µM
COLO 205 colon
  TGI: 0.348 µM
EKVX NSCLC
  TGI: 54.2 µM
HCT-116 colon
  TGI: 8.75 µM
HL-60(TB) leukemia
  TGI: 40.2 µM
HS 578T breast
  TGI: 34.1 µM
IGROV1 ovarian
  TGI: 14.8 µM
K-562 leukemia
  TGI: > 58.4 µM
M14 melanoma
  TGI: 25.1 µM
MDA-MB-231 breast
  TGI: 18.1 µM
NCI-H23 lung
  TGI: 17.3 µM
RXF 393 renal
  TGI: 37 µM
UO-31 renal
  TGI: 30.2 µM

## Cc1cc(N(CCC#N)CCC#N)ccc1/C(N=Nc1ccccc1)=N\NC(=O)c1ccccc1
786-0 renal
  TGI: 76.6 µM
A549 NSCLC
  TGI: > 100 µM
COLO 205 colon
  TGI: 53.6 µM
EKVX NSCLC
  TGI: > 100 µM
HCT-116 colon
  TGI: > 100 µM
HL-60(TB) leukemia
  TGI: > 100 µM
HS 578T breast
  TGI: 75.8 µM
IGROV1 ovarian
  TGI: > 100 µM
K-562 leukemia
  TGI: 44.7 µM
M14 melanoma
  TGI: > 100 µM
MDA-MB-231 breast
  TGI: > 100 µM
NCI-H23 lung
  TGI: > 100 µM
RXF 393 renal
  TGI: > 100 µM
UO-31 renal
  TGI: 65.1 µM

## CCOC(=O)/C=C(\C(=O)OCC)n1cnc2c(N)ncnc21
786-0 renal
  TGI: 10.2 µM
A549 NSCLC
  TGI: 32.2 µM
COLO 205 colon
  TGI: 4.6 µM
EKVX NSCLC
  TGI: 30.7 µM
HCT-116 colon
  TGI: 12.3 µM
HL-60(TB) leukemia
  TGI: 2.78 µM
HS 578T breast
  TGI: 51.5 µM
IGROV1 ovarian
  TGI: 26.7 µM
K-562 leukemia
  TGI: 5.52 µM
M14 melanoma
  TGI: 22.7 µM
MDA-MB-231 breast
  TGI: 21.8 µM
NCI-H23 lung
  TGI: 31.8 µM
RXF 393 renal
  TGI: 26.4 µM
UO-31 renal
  TGI: 30 µM

## COc1ccc(N2CCN(Cc3c(C(C)=O)[n+](=O)c4ccccc4n3[O-])CC2)cc1
786-0 renal
  TGI: > 100 µM
A549 NSCLC
  TGI: > 100 µM
COLO 205 colon
  TGI: > 100 µM
EKVX NSCLC
  TGI: > 100 µM
HCT-116 colon
  TGI: > 100 µM
HL-60(TB) leukemia
  TGI: > 100 µM
HS 578T breast
  TGI: > 100 µM
IGROV1 ovarian
  TGI: > 100 µM
K-562 leukemia
  TGI: > 100 µM
M14 melanoma
  TGI: > 100 µM
MDA-MB-231 breast
  TGI: > 100 µM
NCI-H23 lung
  TGI: > 100 µM
RXF 393 renal
  TGI: 83.4 µM
UO-31 renal
  TGI: > 100 µM

## COC1=CC(=O)c2c(O)ccc(O)c2C1=O
786-0 renal
  TGI: 28 µM
A549 NSCLC
  TGI: 4.09 µM
COLO 205 colon
  TGI: 3.07 µM
EKVX NSCLC
  TGI: 37.8 µM
HCT-116 colon
  TGI: 31.2 µM
HL-60(TB) leukemia
  TGI: 23 µM
HS 578T breast
  TGI: 19.5 µM
IGROV1 ovarian
  TGI: 37.5 µM
K-562 leukemia
  TGI: > 100 µM
M14 melanoma
  TGI: 1.89 µM
MDA-MB-231 breast
  TGI: 10.1 µM
NCI-H23 lung
  TGI: 9.32 µM
RXF 393 renal
  TGI: 31.3 µM
UO-31 renal
  TGI: 34.9 µM

## NC1=NN(c2ccccc2)C2(c3ccncc3C(=O)O)C1C(N)=NN2c1ccccc1 (stereo not drawn)
786-0 renal
  TGI: > 100 µM
A549 NSCLC
  TGI: > 100 µM
COLO 205 colon
  TGI: > 100 µM
EKVX NSCLC
  TGI: > 100 µM
HCT-116 colon
  TGI: > 100 µM
HL-60(TB) leukemia
  TGI: > 100 µM
HS 578T breast
  TGI: > 100 µM
IGROV1 ovarian
  TGI: > 100 µM
K-562 leukemia
  TGI: > 100 µM
M14 melanoma
  TGI: > 100 µM
MDA-MB-231 breast
  TGI: > 100 µM
NCI-H23 lung
  TGI: > 100 µM
RXF 393 renal
  TGI: > 100 µM
UO-31 renal
  TGI: > 100 µM

## CC(=O)O[C@H]1[C@@H](OC2CCCC2(c2ccccc2)c2ccccc2)O[N+]([O-])=C[C@@]12COCc1cc3c(cc12)OCO3 (stereo partly drawn)
786-0 renal
  TGI: 22 µM
A549 NSCLC
  TGI: > 45.4 µM
COLO 205 colon
  TGI: > 58.2 µM
EKVX NSCLC
  TGI: > 25.7 µM
HCT-116 colon
  TGI: > 47.5 µM
HL-60(TB) leukemia
  TGI: > 100 µM
HS 578T breast
  TGI: > 100 µM
IGROV1 ovarian
  TGI: 22.2 µM
K-562 leukemia
  TGI: > 23.7 µM
M14 melanoma
  TGI: 37.2 µM
MDA-MB-231 breast
  TGI: > 43.2 µM
NCI-H23 lung
  TGI: 52.1 µM
RXF 393 renal
  TGI: 17.5 µM
UO-31 renal
  TGI: 14.1 µM

## CC(=O)N1CC[N+](C)(CCCCN2c3ccccc3Sc3cc(N=[N+]=[N-])ccc32)CC1
786-0 renal
  TGI: > 100 µM
A549 NSCLC
  TGI: > 100 µM
COLO 205 colon
  TGI: > 100 µM
EKVX NSCLC
  TGI: > 100 µM
HCT-116 colon
  TGI: > 100 µM
HL-60(TB) leukemia
  TGI: > 100 µM
HS 578T breast
  TGI: > 100 µM
IGROV1 ovarian
  TGI: > 100 µM
K-562 leukemia
  TGI: > 100 µM
M14 melanoma
  TGI: > 100 µM
MDA-MB-231 breast
  TGI: > 100 µM
NCI-H23 lung
  TGI: > 100 µM
RXF 393 renal
  TGI: > 100 µM
UO-31 renal
  TGI: > 100 µM

## COc1ccc(C(=O)/C=C/c2ccc(OCC(=O)O)cc2)cc1
786-0 renal
  TGI: > 100 µM
A549 NSCLC
  TGI: > 100 µM
COLO 205 colon
  TGI: > 100 µM
EKVX NSCLC
  TGI: > 100 µM
HCT-116 colon
  TGI: > 100 µM
HL-60(TB) leukemia
  TGI: > 100 µM
HS 578T breast
  TGI: > 100 µM
IGROV1 ovarian
  TGI: > 100 µM
K-562 leukemia
  TGI: > 100 µM
M14 melanoma
  TGI: > 100 µM
MDA-MB-231 breast
  TGI: > 100 µM
NCI-H23 lung
  TGI: > 100 µM
RXF 393 renal
  TGI: > 100 µM
UO-31 renal
  TGI: > 100 µM

## COc1cc(-c2c3c([nH]c(=O)c2C#N)-c2cc([N+](=O)[O-])ccc2CCC3)cc(OC)c1OC
786-0 renal
  TGI: 65.2 µM
A549 NSCLC
  TGI: 81.8 µM
COLO 205 colon
  TGI: 43.3 µM
EKVX NSCLC
  TGI: 70.5 µM
HCT-116 colon
  TGI: 37.7 µM
HL-60(TB) leukemia
  TGI: 72.7 µM
HS 578T breast
  TGI: 73.3 µM
IGROV1 ovarian
  TGI: > 100 µM
K-562 leukemia
  TGI: > 100 µM
M14 melanoma
  TGI: > 100 µM
MDA-MB-231 breast
  TGI: 79.2 µM
NCI-H23 lung
  TGI: 45.8 µM
RXF 393 renal
  TGI: 82.8 µM
UO-31 renal
  TGI: 75.1 µM

## CC(=O)Nc1ccc(S(=O)(=O)[N-]C2C(=O)c3ccccc3C(=O)C2[n+]2ccccc2)cc1 (stereo not drawn)
786-0 renal
  TGI: > 100 µM
A549 NSCLC
  TGI: 39.7 µM
COLO 205 colon
  TGI: > 100 µM
EKVX NSCLC
  TGI: > 100 µM
HCT-116 colon
  TGI: > 100 µM
HL-60(TB) leukemia
  TGI: 40.5 µM
HS 578T breast
  TGI: 62.4 µM
IGROV1 ovarian
  TGI: 30 µM
K-562 leukemia
  TGI: > 100 µM
M14 melanoma
  TGI: 27.4 µM
MDA-MB-231 breast
  TGI: > 100 µM
NCI-H23 lung
  TGI: 21.5 µM
RXF 393 renal
  TGI: 30.4 µM
UO-31 renal
  TGI: 21.2 µM

Source: PubChem BioAssay (NCI)
